According to BindingDB's records for PubMed 1987453 (Georgetown University, 1991):

Molecular target: Nicotinic acetylcholine receptor (Rattus leucopus, UniProt Q62594)
Sequence (Q62594 whole entry): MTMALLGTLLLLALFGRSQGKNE

| SMILES | Ki |
| --- | --- |
| C=C(C=O)C[C@H]1C[C@H](O)[C@]2(C)O[C@@H]3C[C@@H]4O[C@@H]5C[C@]6(C)O[C@]7(C)CC[C@@H]8O[C@@H]9C[C@]%10(C)O[C@@H]%11C(C)=CC(=O)O[C@H]%11C[C@H]%10O[C@H]9C[C@@H](C)[C@H]8O[C@H]7C[C@H]6O[C@@]5(C)C/C=C\[C@H]4O[C@H]3C[C@H]2O1 | 2 µM |
| CN1[C@@H]2CC[C@H]1CC(OC(=O)[C@H](CO)c1ccccc1)C2 (some centres undefined) [CAS_51-55-8] | > 10 µM |
| CNC(=O)Oc1ccc2c(c1)[C@]1(C)CCN(C)C1N2C (some centres undefined) | > 10 µM |
| COc1cc2c3cc1Oc1cc(ccc1O)CC1c4c(cc(OC)c(O)c4Oc4ccc(cc4)CC3[N+](C)(C)CC2)CC[N+]1(C)C (centres undefined) [CAS_8063-06-7] | > 10 µM |
